According to publication PMC6480038, “In Vitro and In Silico Acetylcholinesterase Inhibitory Activity of Thalictricavine and Canadine and Their Predicted Penetration across the Blood-Brain Barrier” (Molecules, 2019):

Assays:
[1] = biological target: T1, human plasma butyrylcholinesterase (hBChE) (Homo sapiens, UniProt P06276); test: hBChE inhibition, modified Ellman's method; format: biochemical; conditions: BTCh substrate, pH 7.4, 37 °C, mean ± SEM of three measurements
T1 construct: Recombinant hAChE and plasma hBChE were used as sources of cholinesterases; purchased Sigma-Aldrich (Prague, Czech Republic); host or cells: human plasma
Text: (§1) Human recombinant acetylcholinesterase (hAChE; EC 3.1.1.7), human plasma butyrylcholinesterase (hBChE; EC 3.1.1.8), 5,5′-dithiobis(2-nitrobenzoic acid) (Ellman’s reagent, DTNB), phosphate buffer (PB, pH 7.4), dimethyl sulfoxide (DMSO), acetylthiocholine (ATCh), and butyrylthiocholine (BTCh) were purchased from Sigma-Aldrich (Prague, Czech Republic). Polystyrene Nunc 96-well microplates with flat bottom shape (ThermoFisher Scientific, Waltham, MA, USA) were utilized for measuring purposes of cholinesterase assays and the kinetic inhibition study.
(§2) The hAChE and hBChE inhibitory activity of the tested compounds was determined using a modified Ellman’s method. All the assays were carried out in 0.1 M KH2PO4/K2HPO4 buffer, pH 7.4. Enzyme solutions were prepared at an activity of 2.0 units/mL in 2 mL aliquots. The assay medium ([…]) consisted of 40 µL of 0.1 M phosphate buffer (pH 7.4), 20 µL of 0.01 M DTNB, 10 µL of enzyme, and 20 µL of 0.01 M substrate (ATCh iodide solution). […] The reaction started by addition of 20 µL of the substrate (ATCh for hAChE, BTCh for hBChE). […] Each concentration was assayed in triplicate.

[2] = in vitro; conditions: pig, PAMPA, pH 7.4
[3] = system: selected human carcinoma and non-carcinoma cells; conditions: read-out: cytotoxicity IC50; cited from earlier work
[4] = biological target: T2, recombinant hAChE (Homo sapiens, UniProt P22303); test: Kinetic study of hAChE inhibition; format: biochemical; conditions: for type of inhibition: nonlinear regression with sum-of-squares F-test, p < 0.05; for Ki: nonlinear regression, ATCh 156–1250 µM
T2 construct: purchased Sigma-Aldrich (Prague, Czech Republic)
Text: The mode of interaction of the hAChE inhibition was elucidated for 1 and 2 using a kinetic study in order to gain information about the mode of inhibition and the binding site of the isolated alkaloids. Recombinant hAChE was used in this kinetic analysis of 1 and 2. […] The type of the inhibition mechanism was clarified by a nonlinear regression analysis. The results computed for each model type of inhibition (competitive, non-competitive, uncompetitive and mixed) were compared with the sum-of-squares F-test.
The kinetic study of hAChE inhibition was performed by using Ellman’s method (described above). […] Reactions were performed in triplicate. Vmax and Km values, respectively, of the Michaelis-Menten kinetics and Ki were calculated by non-linear regression from the substrate velocity curves. Linear regression was used for calculation of Lineweaver-Burk plots. All calculations were performed using the GraphPad Prism software.

[5] = biological target: T3, human recombinant acetylcholinesterase (hAChE) (Homo sapiens, UniProt P22303); test: biochemical; conditions: for SI (selectivity index for hAChE): ratio IC50 hBChE / IC50 hAChE; for IC50: recombinant hAChE, ATCh substrate, pH 7.4, 37 °C, mean ± SEM of three measurements
T3 construct: purchased Sigma-Aldrich (Prague, Czech Republic)
Text: as §1, §2

[6] = Table S1, predictive penetration into the CNS
[7] = system: AChE (red blood cell ghosts); conditions: earlier screening, 25 °C, red blood cell ghosts as AChE source; cited from earlier work

T2 sequence (P22303 32-614): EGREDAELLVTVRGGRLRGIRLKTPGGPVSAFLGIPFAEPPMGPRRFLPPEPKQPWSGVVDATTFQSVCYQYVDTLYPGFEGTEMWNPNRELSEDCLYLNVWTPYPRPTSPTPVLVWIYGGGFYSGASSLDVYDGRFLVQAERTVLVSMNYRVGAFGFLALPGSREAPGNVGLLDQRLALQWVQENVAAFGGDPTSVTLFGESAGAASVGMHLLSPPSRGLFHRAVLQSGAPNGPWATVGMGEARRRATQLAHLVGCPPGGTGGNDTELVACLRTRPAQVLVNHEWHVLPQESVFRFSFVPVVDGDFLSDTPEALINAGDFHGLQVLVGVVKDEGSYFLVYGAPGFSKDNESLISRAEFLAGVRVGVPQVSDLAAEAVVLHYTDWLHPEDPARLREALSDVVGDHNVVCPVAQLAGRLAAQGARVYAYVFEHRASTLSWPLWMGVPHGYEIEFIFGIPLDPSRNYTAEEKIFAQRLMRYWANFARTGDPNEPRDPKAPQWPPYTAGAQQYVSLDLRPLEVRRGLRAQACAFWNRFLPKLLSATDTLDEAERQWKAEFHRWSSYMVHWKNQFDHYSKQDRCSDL
T3 sequence (P22303 32-614): as above
T1 sequence (P06276 29-602): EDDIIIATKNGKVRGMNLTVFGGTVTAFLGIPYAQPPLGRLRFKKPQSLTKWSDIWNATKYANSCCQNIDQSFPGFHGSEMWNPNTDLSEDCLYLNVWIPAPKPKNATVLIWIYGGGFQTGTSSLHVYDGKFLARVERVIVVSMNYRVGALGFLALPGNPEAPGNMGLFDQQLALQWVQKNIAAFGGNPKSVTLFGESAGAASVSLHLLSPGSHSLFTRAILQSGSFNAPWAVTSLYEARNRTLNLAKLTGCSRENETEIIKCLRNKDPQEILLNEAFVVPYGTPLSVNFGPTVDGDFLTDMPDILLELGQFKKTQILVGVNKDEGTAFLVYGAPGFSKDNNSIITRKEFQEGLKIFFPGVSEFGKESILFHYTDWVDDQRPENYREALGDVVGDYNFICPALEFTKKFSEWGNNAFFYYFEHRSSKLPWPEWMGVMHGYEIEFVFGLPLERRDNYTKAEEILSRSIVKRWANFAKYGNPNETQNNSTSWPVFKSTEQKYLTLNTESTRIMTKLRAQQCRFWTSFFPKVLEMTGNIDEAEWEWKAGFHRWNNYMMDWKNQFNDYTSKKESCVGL

| Compound | IC50 [1] [nM] | Papp [2] [×10⁻⁶ cm/s] | IC50 [3] [nM] | type of inhibition [4] | Ki [4] [nM] | SI (selectivity index for hAChE) [5] | IC50 [5] [nM] | PAMPA-BBB prediction [6] | IC50 value for AChE [7] |
| --- | --- | --- | --- | --- | --- | --- | --- | --- | --- |
| COc1ccc2c(c1OC)CN1CCc3cc4c(cc3[C@H]1[C@H]2C)OCO4 [Compound 1, (+)-thalictricavine] | > 100000 | 2.5 ± 0.1 | > 10000 | competitive | 174 ± 56.9 | >263 | 380 ± 50 | – | – |
| COc1ccc2c(c1OC)CN1CCc3cc4c(cc3[C@H]1C2)OCO4 [Compound 2, (+)-canadine] | > 100000 | 5 ± 0.3 | > 10000 | competitive | 129 ± 44 | >143 | 700 ± 70 | CNS + | low micromolar range |
| Cn1c(=O)c2c(ncn2C)n(C)c1=O [caffeine, reference compound] | – | 0.3 | – | – | – | – | – | – | – |
